US9861099B2, “Composition for enhancing plant disease control effect of monosaccharide” (MITSUI CHEMICALS AGRO, INC., priority 2013, dated 2018)

How the values were obtained:
Format in all cases: in vivo
[1] = tested on: Rhizoctonia solani AGI-IA; test: Rice sheath blight (SB) control test; settings: Table 9: monosaccharide 10% liquid preparation, no assistant, 10-fold dilution (monosaccharide 1%)
Protocol: (SB: Sheath Blight) Test plants (rice variety: Sachikaze) were planted followed by cultivating until the third leaf appeared. In the test, dilutions (5 ml/pot) obtained by diluting with distilled water so that each formula reached a prescribed concentration were sprayed. After inoculating the seedlings one day after spraying with clumps of Rhizoctonia solani AGI-IA cultured for 14 days in oat medium, the seedlings were allowed to stand for about 24 hours in an inoculation room at a room temperature of 28° C. to promote the onset of disease. Disease development was investigated 14 days after inoculation, and the effects thereof were evaluated. Disease development was evaluated using the following indicators for disease control tests evaluated according to the methods described above. Furthermore, preventive values were calculated based on the disease development.

[2] = tested on: Magnaporthe grisea; settings: for preventive value B: Table 9: monosaccharide 10% liquid preparation, no assistant, 10-fold dilution (monosaccharide 1%)
[3] = tested on: Sphaerotheca cucurbitae; test: Cucumber powdery mildew (CPM) control test; settings: for preventive value CPM: Table 9: monosaccharide 10% liquid preparation, no assistant, 10-fold dilution (monosaccharide 1%); for control effect against cucumber powdery mildew: Test Example 10, D-tagatose only
[4] = tested on: Plasmopara viticola; test: Grape vine downy mildew (VDM) control test; settings: for preventive value VDM: Table 9: monosaccharide 10% liquid preparation, no assistant, 10-fold dilution (monosaccharide 1%); for control effect against grape vine downy mildew: Test Example 10, D-tagatose only
[5] = tested on: Botrytis cinerea; test: Tomato gray mold (GM) control test; settings: for preventive value GM: Table 9: monosaccharide 10% liquid preparation, no assistant, 10-fold dilution (monosaccharide 1%)
Protocol: (GM: Gray Mold) Test plants (tomato variety: Oogata Fukuju) were planted followed by cultivating until three first leaves appeared. In the test, dilutions (5 ml/pot) obtained by diluting with distilled water so that each formula reached a prescribed concentration were sprayed. After inoculating the seedlings one day after spraying by spraying with 1×10^7 organisms/ml of conidia of Botrytis cinerea, the seedlings were allowed to stand for about 48 hours in an inoculation room at a room temperature of 20° C. to 23° C. to promote the onset of disease. Disease development was investigated 2 days after inoculation, and the effects thereof were evaluated. Disease development was evaluated using the following indicators for disease control tests evaluated according to the methods described above. Furthermore, preventive values were calculated based on the disease development.

[6] = tested on: Phytophthora infestans; settings: for preventive value LB: Table 9: monosaccharide 10% liquid preparation, no assistant, 10-fold dilution (monosaccharide 1%)
[7] = tested on: Venturia inaequalis; test: Apple scab (AS) control test; settings: for preventive value AS: Table 9: monosaccharide 10% liquid preparation, no assistant, 10-fold dilution (monosaccharide 1%)
Protocol: (AS: Apple Scab) Test plants (apple variety: Ohrin) were planted followed by cultivating until four first leaves appeared. In the test, dilutions (5 ml/pot) obtained by diluting with distilled water so that each formula reached a prescribed concentration were sprayed. After inoculating the seedlings one day after spraying by spraying with 1×10^5 organisms/ml of conidia of Venturia inaequalis, the seedlings were allowed to stand for about 24 hours in an inoculation room at a room temperature of 18° C. to 20° C. to promote the onset of disease. Disease development was investigated 10 days after inoculation, and the effects thereof were evaluated. Disease development was evaluated using the following indicators for disease control tests evaluated according to the methods described above. Furthermore, preventive values were calculated based on the disease development.

[8] = tested on: Pseudoperonospora cubensis; test: Cucumber downy mildew (CDM) control test; settings: for Evaluation Score CDM: Table 8: D-tagatose liquid preparation with assistant (5 parts), 10-fold dilution (D-tagatose 0.5%+assistant 0.5%), improvement vs D-tagatose only; for control effect against cucumber downy mildew: Test Example 10, D-tagatose only
[9] = tested on: Ralstonia solanacearum; settings: Table 9: monosaccharide 10% liquid preparation, no assistant, 10-fold dilution (monosaccharide 1%)
[10] = tested on: Pythium ultimum; test: Cabbage damping-off, soil irrigation treatment; settings: formula containing D-tagatose only, 80-fold dilution (D-tagatose 1%)
Protocol: The effects of the D-tagatose water-soluble powders containing anionic surfactant prepared in Example 11 on […] were evaluated. Test soil was inoculated by contacting with Pythium ultimum preliminarily cultured in wheat bran medium followed by planting the test plants (cabbage variety: Shikidori) therein. The soil was treated by irrigating at 3 L/m^2 with the formulations which had been 80-fold diluted with well water (treatment concentrations: D-tagatose 1%+assistant 0.25%). […] Effects were evaluated using the same evaluation method as Test Example 1. The protective value with respect to cabbage damping-off of a formula containing D-tagatose only was 29.9.

[11] = tested on: Phakopsora ampelopsidis; test: Grape vine rust (VR) control test; settings: Test Example 10, D-tagatose only, treatment concentration 5%
Protocol: (VR: Vine Rust) Test plants (grape variety: Neomuscat) were planted followed by cultivating until three to four first leaves appeared. In the test, dilutions (5 ml/pot) obtained by diluting with distilled water so that each formula reached a prescribed concentration were sprayed. After inoculating the seedlings one day after spraying by spraying with 1×10^7 organisms/ml of uredospores of Phakopsora ampelopsidis, the seedlings were allowed to stand for about 24 hours in an inoculation room at a room temperature of 20° C. to 23° C. to promote the onset of disease. Disease development was investigated 12 days after inoculation, and the effects thereof were evaluated. Disease development was evaluated using the following indicators for disease control tests evaluated according to the methods described above. Furthermore, preventive values were calculated based on the disease development.

[12] = tested on: Phakopsora pachyrhizi; test: Soybean rust (SR) control test; settings: Test Example 10, D-tagatose only, treatment concentration 5%
[13] = tested on: Blumeria graminis f sp. hordei; test: Barley powdery mildew (BPM) control test; settings: Test Example 10, D-tagatose only
Protocol: (BPM: Barley Powdery Mildew) Test plants (barley variety: Sekishinryoku) were planted followed by cultivating until the second leaf appeared. In the test, dilutions (5 ml/pot) obtained by diluting with distilled water so that each formula reached a prescribed concentration were sprayed. After inoculating the seedlings one day after spraying by shaking off conidia of Blumeria graminis f sp. hordei onto the seedlings, disease development was investigated 7 days after, and the effects thereof were evaluated. Disease development was evaluated using the following indicators for disease control tests evaluated according to the methods described above. Furthermore, preventive values were calculated based on the disease development.

[14] = tested on: Puccinia recondita; test: Wheat brown rust (WR) control test
[15] = tested on: Septoria tritici; test: Wheat septoria leaf blotch (SLB) control test; settings: Test Example 10, D-tagatose only, treatment concentration 5%
Protocol: (SLB: Septoria Leaf Blotch) Test plants (wheat variety: Norin 61) were planted followed by cultivating until the second leaf appeared. In the test, dilutions (5 ml/pot) obtained by diluting with distilled water so that each formula reached a prescribed concentration were sprayed. After inoculating the seedlings one day after spraying by spraying with 1×10^7 organisms/ml of conidia of Septoria tritici, the seedlings were allowed to stand for about 24 hours in an inoculation room at a room temperature of 18° C. to promote the onset of disease. Disease development was investigated 14 days after inoculation, and the effects thereof were evaluated. Disease development was evaluated using the following indicators for disease control tests evaluated according to the methods described above. Furthermore, preventive values were calculated based on the disease development.

[16] = tested on: Colletotrichum orbiculare; test: Cucumber anthracnose (CA) control test; settings: Test Example 10, D-tagatose only, treatment concentration 5%
Protocol: (CA: Cucumber Anthracnose) Test plants (cucumber variety: Sagami Hanjiro) were planted followed by cultivating until the first leaf appeared. In the test, dilutions (5 ml/pot) obtained by diluting with distilled water so that each formula reached a prescribed concentration were sprayed. After inoculating the seedlings one day after spraying by spraying with 1×10^7 organisms/ml of conidia of Colletotrichum orbiculare, the seedlings were allowed to stand for about 24 hours in an inoculation room at a room temperature of 20° C. to 23° C. to promote the onset of disease. Disease development was investigated 10 days after inoculation, and the effects thereof were evaluated. Disease development was evaluated using the following indicators for disease control tests evaluated according to the methods described above. Furthermore, preventive values were calculated based on the disease development.

[17] = tested on: Pythium aphanidermatum; test: Pythium red blight of bentgrass, soil irrigation treatment; settings: Comparative Example, main agent only (D-tagatose 80 parts), no assistant; 100-fold dilution, soil irrigation 3 L/m^2; five days after inoculation
Protocol: The effects of the D-tagatose water-soluble powders containing anionic surfactant prepared in Example 11 on grass red blight were evaluated. Test plants (grass variety: Bentgrass) were planted, and three weeks later, cut to a height of 1 cm prior to use in the test. In the test, after inoculating the seedlings with Pythium aphanidermatum preliminarily cultured in wheat bran medium, dilutions obtained by diluting each formula 100-fold with well water were used to treat soil by irrigating at 3 L/m^2 (treatment concentrations: D-tagatose 0.8%+assistant 0.2%). After investigating the onset of disease five days after inoculation, control values were calculated from the diseased area. Effects were evaluated using the same evaluation method as Test Example 10.

[18] = Test Example 12, D-tagatose 5 parts + Assistant 1 5 parts, 10-fold dilution (D-tagatose 0.5% + Assistant 1 0.5%)
[19] = Test Example 10, D-tagatose only, treatment concentration 5%
[20] = formula containing D-tagatose only, treatment concentration 0.8%

## OC[C@H]1OC(O)[C@H](O)[C@H](O)[C@@H]1O (stereo partly drawn) [D-allose]
[1]
  preventive value SB: (60)
[2]
  preventive value B: (40)
[3]
  preventive value CPM: (17)
[4]
  preventive value VDM: (40)
[5]
  preventive value GM: (33)
[6]
  preventive value LB: (60)
[7]
  preventive value AS: (66)

## O=C[C@H](O)[C@@H](O)[C@@H](O)[C@H](O)CO [D-galactose]
[8]
  Evaluation Score CDM: 1 (Improvement in preventive value of 1 to less than 10)
[1]
  preventive value SB: (60)
[9]
  preventive value TBW: (25)
[2]
  preventive value B: (17)
[3]
  preventive value CPM: (0)
[4]
  preventive value VDM: (0)
[5]
  preventive value GM: (33)
[6]
  preventive value LB: (0)
[7]
  preventive value AS: (66)

## O=C(CO)[C@H](O)[C@H](O)[C@H](O)CO [D-psicose]
[8]
  Evaluation Score CDM: 3 (Improvement in preventive value of 20 to less than 30)
[1]
  preventive value SB: (40)
[2]
  preventive value B: (50)
[3]
  preventive value CPM: (17)
[4]
  preventive value VDM: (0)
[5]
  preventive value GM: (50)
[6]
  preventive value LB: (47)
[7]
  preventive value AS: (50)

## O=C(CO)[C@H](O)[C@@H](O)[C@H](O)CO [D-sorbose]
[8]
  Evaluation Score CDM: 2 (Improvement in preventive value of 10 to less than 20)
[1]
  preventive value SB: (40)
[2]
  preventive value B: (17)
[3]
  preventive value CPM: (17)
[4]
  preventive value VDM: (0)
[5]
  preventive value GM: (33)
[6]
  preventive value LB: (33)
[7]
  preventive value AS: (33)

## O=C(CO)[C@@H](O)[C@@H](O)[C@H](O)CO [D-tagatose, reference compound]
[10]
  protective value, cabbage damping-off: 29.9
[8]; treatment concentration 0.8%
  control effect against cucumber downy mildew: not adequate
[8]; treatment concentration 5%
  control effect against cucumber downy mildew: high control effect
[8]; [18]
  Protective Value Index CDM, Assistant 1: 2 (Preventive value of 60 to less than 80)
[8]; formula containing D-tagatose only, treatment concentration 0.4%
  preventive value, cucumber downy mildew: about 50 (40 to 60)
[11]
  effects against grape vine rust: not adequate
[12]
  effects against soybean rust: not adequate
[13]; treatment concentration 0.8%
  control effect against barley powdery mildew: not adequate
[13]; treatment concentration 5%
  control effect against barley powdery mildew: high control effect
[2]; [19]
  effects against rice blast: not adequate
[3]; treatment concentration 0.8%
  control effect against cucumber powdery mildew: not adequate
[3]; treatment concentration 5%
  control effect against cucumber powdery mildew: high control effect
[3]; [18]
  Protective Value Index CPM, Assistant 1: 2 (Preventive value of 60 to less than 80)
[3]; [20]
  preventive value, cucumber powdery mildew: about 50 (40 to 60)
[14]; [19]
  effects against wheat rust: not adequate
[14]; [20]
  preventive value, wheat rash: about 5 (0 to 10)
[15]
  effects against wheat speckled leaf blotch: not adequate
[16]
  effects against cucumber anthracnose: not adequate
[4]; treatment concentration 0.8%
  control effect against grape vine downy mildew: not adequate
[4]; treatment concentration 5%
  control effect against grape vine downy mildew: high control effect
[4]; [18]
  Protective Value Index VDM, Assistant 1: 1 (Preventive value of 30 to less than 60)
[4]; [20]
  preventive value, grape vine downy mildew: about 40 (30 to 50)
[5]; [19]
  effects against tomato gray mold: not adequate
[6]; [19]
  effects against tomato late blight: not adequate
[17]
  Preventive Value Indices, bentgrass red blight: 1 (Preventive value of 30 to less than 60)
[7]; [19]
  effects against apple scab: not adequate
